Earlier results in patent publication US5811400A, “Peptide derivatives with δ opioid receptor antagonist or mixed μ agδ antagonist effects” (Astra AB, priority 1994, dated 1998).

Tested on: μ opioid receptors
Details: GPI assay

Oc1ccc2c3c1O[C@H]1c4[nH]c5ccccc5c4C[C@@]4(O)[C@@H](C2)N(CC2CC2)CC[C@]314 [naltrindole]
μ antagonist properties (Ke): 29 nM
